Assays:
[1] = test system: dyskerin; assay: Immunofluorescence staining of dyskerin localisation; format: cell-based, human; details: SGC-7901, 2 µM, 48 h
Procedure: SGC-7901 cells were grown on glass coverslips in a 6-well culture plate until approximately 30–40% confluent and then treated with compound 5i for 48 h. The coverslips were fixed in 4% paraformaldehyde for 15 min, followed by 0.5% Triton X-100 for 30 min at room temperature. Fixed and permeabilised cells were blocked with 3% BSA for 30 min at room temperature. Then, the cells were respectively immunolabeled with the appropriate primary and secondary antibodies. FITC-conjugated anti-rabbit IgG (ZSBIO, 1:100) for dyskerin emit green fluorescence. DAPI was used for nuclear staining.

[2] = target: T1, telomerase (Homo sapiens, UniProt O14746); assay: Telomerase activity assay (TRAP-PCR-ELISA); format: biochemical; details: SGC-7901 cells extracts, 24-h treatment, mean ± SD
T1 construct: endogenous in cells; host or cells: SGC-7901
T1 sequence (O14746 whole entry): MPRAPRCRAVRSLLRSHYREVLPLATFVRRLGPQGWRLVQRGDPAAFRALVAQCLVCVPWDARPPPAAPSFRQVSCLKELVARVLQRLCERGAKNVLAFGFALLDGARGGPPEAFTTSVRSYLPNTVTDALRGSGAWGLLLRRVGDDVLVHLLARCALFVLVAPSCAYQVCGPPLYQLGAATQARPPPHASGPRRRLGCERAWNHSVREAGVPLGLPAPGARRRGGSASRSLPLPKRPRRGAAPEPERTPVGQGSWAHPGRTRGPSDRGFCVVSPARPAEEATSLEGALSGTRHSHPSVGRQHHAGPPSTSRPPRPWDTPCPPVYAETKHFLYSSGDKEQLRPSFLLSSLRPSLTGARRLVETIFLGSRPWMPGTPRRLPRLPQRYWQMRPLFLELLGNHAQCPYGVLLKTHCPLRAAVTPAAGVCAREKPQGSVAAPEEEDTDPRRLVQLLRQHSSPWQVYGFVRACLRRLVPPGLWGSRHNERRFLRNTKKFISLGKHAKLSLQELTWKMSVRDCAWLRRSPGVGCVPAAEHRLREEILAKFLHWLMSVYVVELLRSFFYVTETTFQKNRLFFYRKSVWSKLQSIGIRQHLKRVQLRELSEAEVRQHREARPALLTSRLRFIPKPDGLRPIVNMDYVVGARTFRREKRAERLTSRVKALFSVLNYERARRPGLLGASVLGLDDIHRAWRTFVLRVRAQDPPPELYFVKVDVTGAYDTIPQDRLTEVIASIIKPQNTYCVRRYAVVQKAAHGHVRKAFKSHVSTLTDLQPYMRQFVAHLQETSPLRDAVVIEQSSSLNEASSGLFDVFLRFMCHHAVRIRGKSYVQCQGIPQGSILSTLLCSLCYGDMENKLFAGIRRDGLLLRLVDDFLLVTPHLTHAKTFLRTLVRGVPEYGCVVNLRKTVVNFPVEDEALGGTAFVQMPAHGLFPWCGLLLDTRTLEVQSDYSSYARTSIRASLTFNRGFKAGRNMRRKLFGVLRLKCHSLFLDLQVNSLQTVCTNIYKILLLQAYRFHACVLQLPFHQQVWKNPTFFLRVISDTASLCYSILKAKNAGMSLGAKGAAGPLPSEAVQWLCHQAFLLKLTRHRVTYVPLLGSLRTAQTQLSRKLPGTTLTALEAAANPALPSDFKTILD
T1 sequence (O60832 whole entry partner): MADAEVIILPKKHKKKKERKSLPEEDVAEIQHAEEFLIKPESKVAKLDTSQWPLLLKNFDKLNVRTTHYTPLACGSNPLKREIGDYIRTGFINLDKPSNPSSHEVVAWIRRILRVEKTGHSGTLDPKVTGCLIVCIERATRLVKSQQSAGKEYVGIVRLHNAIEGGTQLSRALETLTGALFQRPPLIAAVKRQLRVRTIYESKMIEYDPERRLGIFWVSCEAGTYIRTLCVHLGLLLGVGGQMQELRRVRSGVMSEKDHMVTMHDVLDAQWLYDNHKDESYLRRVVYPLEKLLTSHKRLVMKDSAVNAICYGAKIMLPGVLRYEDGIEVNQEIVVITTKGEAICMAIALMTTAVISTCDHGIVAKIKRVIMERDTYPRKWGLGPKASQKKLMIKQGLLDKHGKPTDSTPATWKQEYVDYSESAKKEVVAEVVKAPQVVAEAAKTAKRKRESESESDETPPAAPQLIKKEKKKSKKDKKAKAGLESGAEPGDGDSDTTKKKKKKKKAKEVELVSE
T1 sequence (Q9NX24 whole entry partner): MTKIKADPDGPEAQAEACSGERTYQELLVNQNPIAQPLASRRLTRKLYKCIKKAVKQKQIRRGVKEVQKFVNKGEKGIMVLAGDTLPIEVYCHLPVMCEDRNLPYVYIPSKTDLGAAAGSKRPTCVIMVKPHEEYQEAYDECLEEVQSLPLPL
T1 sequence (Q9NPE3 whole entry partner): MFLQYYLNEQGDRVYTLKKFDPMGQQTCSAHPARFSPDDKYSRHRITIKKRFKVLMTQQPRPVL
T1 sequence (Q9NY12 whole entry partner): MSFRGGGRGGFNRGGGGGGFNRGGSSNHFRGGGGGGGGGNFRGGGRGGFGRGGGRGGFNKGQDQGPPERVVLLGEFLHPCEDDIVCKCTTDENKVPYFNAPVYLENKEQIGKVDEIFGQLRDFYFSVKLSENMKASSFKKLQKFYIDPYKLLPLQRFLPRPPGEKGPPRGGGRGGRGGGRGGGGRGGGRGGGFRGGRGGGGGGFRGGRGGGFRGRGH
Procedure: Inhibit of telomerase activity was tested using the TRAP-PCR-ELISA assay. In detail, the SGC-7901 cells were firstly maintained in DMEM medium (GIBCO, New York) supplemented with 10% fetal bovineserum (GIBCO, NewYork), streptomycin (0.1 mg/mL) and penicillin (100 IU/mL) at 37 °C in a humidified atmosphere containing 5% CO2. After trypsinisation, 5 × 10^4 cultured cells in logarithmic growth were seeded into T25 flasks (Corning, New York) and cultured to allow to adherence. The cells were then incubated with Staurosporine (Santa Cruz, Santa Cruz) and the drugs with a series of concentration as 60, 20, 6.67, 2.22, 0.74, 0.25 and 0.082 l g/mL, respectively. After 24-h treatment, the cells were harvested by cell scraper orderly following by washed once with PBS. The cells were lysed in 150 µL RIPA cell lysis buffer (Santa Cruz, Santa Cruz) and incubated on ice for 30 min. The cellular supernatants were obtained via centrifugation at 12,000 g for 20 min at 4 °C and stored at −80 °C. The TRAP-PCR-ELISA assay was performed using a telomerase detection kit (Roche, Basel, Switzerland) according to the manufacturer’s protocol. In brief, 2 µL of cell extracts were mixed with 48 µL TRAP reaction mixtures. PCR was then initiated at 94 °C, 120 s for predenaturation and performed using 35 cycles each consisting of 94 °C for 30 s, 50 °C for 30 s, 72 °C for 90 s. Then 20 µL of PCR products were hybridised to a digoxigenin (DIG)-labeled telomeric repeat specific detection probe. And the PCR products were immobilised via the biotin-labeled primer to a streptavidin-coated microtiter plate subsequently. The immobilised DNA fragment were detected with a peroxidase-conjugated anti-DIG antibody and visualised following addition of the stop regent. The microtitre plate was assessed on TECAN Infinite M200 microplate reader (Mannedorf, Switzerland) at a wavelength of 490 nm, and the final value were presented as mean ± SD.

## COc1cc(OC)c2c(=O)c(OCCCCN3CCN(C(=O)c4ccncc4)CC3)c(-c3cc(OC)c(OC)c(OC)c3)oc2c1 [Compound 5i, 3-(4-(4-isonicotinoylpiperazin-1-yl)butoxy)-5,7-dimethoxy-2-(3,4,5-trimethoxyphenyl)-4H-chromen-4-one]
[1]
  cytoplasm localisation dyskerin (immunofluorescence): significantly reduced
  nucleus dyskerin (immunofluorescence): almost all the nucleus dyskerin was disappeared
[2]
  IC50: 890 ± 170 nM

Source: PMC6104605, “Discovery of new chromen-4-one derivatives as telomerase inhibitors through regulating expression of dyskerin” (Journal of Enzyme Inhibition and Medicinal Chemistry, 2018)
